Here are results for 2 substances from US10889812B2, “Short non-coding protein regulatory RNAs (sprRNAs) and methods of use” (University of Maryland, Baltimore, priority 2014, dated 2021).

One data set has as its system p-ERM. In words: p-ERM protein levels in HBE4 cells (Western blot). Particulars: following treatment. The class given is cell-based, human. In general terms: A western blot detects proteins with antibodies after separation by electrophoresis.
Another data set concerns ERM proteins. Briefly: Pull down with biotin-conjugated piR-L-163 from HBE4 cell lysates, LC-MS-MS. The class given is binding, human. The conditions noted are these: vs Scr control RNA. An excerpt: Because of the unexpected cellular localizations of piR-L-163 during cell cycle progression, we suspected that piR-L-163 plays a biological role through interaction with proteins. To identify potential piR-L-163 interacting proteins, biotin-conjugated piR-L-163 RNA oligonucleotides were used as a bait to pull down cellular binding proteins in HBE4 cells.
For IP using piR-L-163, synthesized biotin labeled RNA oligonucleotides (/5′Biosg/[…]-3′) (SEQ ID NO:502) was used and scrambled RNA (/5′Biosg/[…]-3′) (SEQ ID NO:503) used as a control.
Protein extracts from 1×10^7 cells using HKMG lysis buffer (10 mM HEPES pH 7.9, 100 mM KCL, 5 mM MgCl2, 10% glycerol, 1 mM dithiothreitol, 0.1% NP40) with protease and phosphatase inhibitors (Roche) were incubated with 1 μg biotin-labeled RNA for 16 hr at 4° C. with rotation after pre-clearing with streptavidin beads, then coupled to 10 μl 50% of streptavidin agarose beads (Sigma-Aldrich). After incubation, the biotin-labeled oligonucleotide-coupled streptavidin beads were washed four times with HKMG lysis buffer. Samples were denatured in SDS protein loading buffer before running on a SDS-acrylamide gel.
The target band for mass spectrometry was performed. […]
The processed samples were analyzed using a nanoscale reverse-phase liquid chromatography using an Xtreme Simple nanoLC system (CVC/Q24 MicroTech). […]

For data set [1], the target named is T1, mutant form of moesin with RRRKPDT deletion (Moesin-DM) (Homo sapiens, UniProt P26038, DEL293-299).
T1 construct: expressed in transfected cells; host or cells: H522 cells, pcDNA3.1(+) plasmid
In words: IP/RT-PCR binding to introduced moesin in H522 cells. The conditions noted are these: H522 cells co-transfected. An excerpt: (§1) To determine potential element of ERM proteins critical for their binding with piR-L-163, we analyzed human and Drosophila moesin sequences using BindN (http://bioinfo.ggc.org/bindn/) and identified RRRKPDT (SEQ ID NO:488) at position 293-299 as a candidate RNA binding element (FIG. 12a, b). We then constructed plasmids containing either wild-type human moesin (Moesin-WT) or a mutant form of moesin with RRRKPDT (SEQ ID NO:488) deletion (Moesin-DM). Both plasmids produce high levels of moesin proteins in the transfected cells (FIG. 5d). We used two cell lines (H522 and HBE4) to test if this element contributes to the binding between moesin and piR-L-163. H522 cells expressed extremely low level of endogenous p-ERM (FIG. 5c) and very low level of piR-L-163 (FIG. 11a). H522 cells transfected with piR-L-163 were simultaneously transfected with either Moesin-WT or Moesin-DM to determine the potential binding ability of the introduced moesin proteins with piR-L-163. We also used the non-functional piR-L-163M1 mutant to replace piR-L-163 in the experiment as a negative control. […] We next transfected HBE4 cells which expressed both p-ERM and piR-L-163 (FIG. 4e and FIG. 11a) with either Moesin-WT or Moesin-DM after knocked down the endogenous moesin in the cells. […]

In data set [2] the target is T2, wild-type human moesin (Moesin-WT) (Homo sapiens, UniProt P26038).
T2 construct: expressed in transfected cells; host or cells: H522 cells, pcDNA3.1(+) plasmid
The description is as above. The conditions noted are these: H522 cells co-transfected.
Excerpt: as §1

T2 sequence (P26038 whole entry): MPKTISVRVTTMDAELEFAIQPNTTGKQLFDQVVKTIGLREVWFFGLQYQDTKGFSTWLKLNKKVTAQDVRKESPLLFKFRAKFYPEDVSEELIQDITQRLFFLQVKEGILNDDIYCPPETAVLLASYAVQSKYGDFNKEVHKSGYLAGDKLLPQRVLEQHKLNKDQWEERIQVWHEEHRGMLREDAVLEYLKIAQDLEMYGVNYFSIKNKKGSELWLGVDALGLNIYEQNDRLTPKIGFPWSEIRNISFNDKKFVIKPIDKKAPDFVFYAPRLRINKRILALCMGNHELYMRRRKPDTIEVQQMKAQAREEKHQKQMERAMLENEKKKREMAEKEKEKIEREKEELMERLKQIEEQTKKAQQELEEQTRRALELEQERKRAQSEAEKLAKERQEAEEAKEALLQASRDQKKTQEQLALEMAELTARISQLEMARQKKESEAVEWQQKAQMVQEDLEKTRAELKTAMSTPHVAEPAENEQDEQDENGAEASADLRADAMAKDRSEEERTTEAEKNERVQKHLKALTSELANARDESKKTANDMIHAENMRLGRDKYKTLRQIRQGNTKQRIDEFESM
T1 sequence (P26038 with tags, fused parts or gaps DEL293-299): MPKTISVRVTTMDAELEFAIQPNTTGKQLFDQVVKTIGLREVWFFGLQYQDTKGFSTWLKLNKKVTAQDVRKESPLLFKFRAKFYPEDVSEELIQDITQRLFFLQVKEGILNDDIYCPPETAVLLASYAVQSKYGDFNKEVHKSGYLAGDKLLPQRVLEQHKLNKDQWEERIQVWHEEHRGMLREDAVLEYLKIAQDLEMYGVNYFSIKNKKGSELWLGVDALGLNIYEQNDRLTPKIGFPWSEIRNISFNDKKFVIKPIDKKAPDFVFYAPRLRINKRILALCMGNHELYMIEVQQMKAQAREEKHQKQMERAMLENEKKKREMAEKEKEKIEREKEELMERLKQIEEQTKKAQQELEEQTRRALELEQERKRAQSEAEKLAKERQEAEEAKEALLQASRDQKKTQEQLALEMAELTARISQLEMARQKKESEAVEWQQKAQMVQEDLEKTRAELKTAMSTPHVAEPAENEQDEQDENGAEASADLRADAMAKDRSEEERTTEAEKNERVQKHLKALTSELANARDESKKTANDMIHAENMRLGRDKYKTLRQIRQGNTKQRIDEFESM

Turning to “Ant-163: DNA sequence antisense to piR-L-163, SEQ ID NO:496, 5′-GGTCAGAGAATCAAAGTAACATCATGATAT-3′ (DNA, backbone and methylation of C not given here)”, in the data set with p-ERM, the p-ERM protein levels entry is given as “not significantly changed”.
For “piR-L-163: sprRNA, SEQ ID NO:282; piRNA-L aligned to intron 10 of LAMC2; AUAUCAUGAUGUUACUUUGAUUCUCUGACC with 3′ 2′-O-methylation (listed as RNA, chemistry not fully specified; listed as Homo sapiens)”, the “binding to ERM proteins (pull down)” value with ERM proteins is reported as “binds to ERM proteins”. Besides, the “binding to Moesin-DM” value in data set [1] is reported as “failed to bind”. Further, the “binding to Moesin-WT” value in data set [2] is “bound to piR-L-163”.
